Data published in patent US20020132812A1, “Oral hypoglycaemic agents” (priority 2000, published 2002).

Columns and labels:
intact mouse islets = assay: Insulin release from intact mouse islets (ELISA); format: cell-based; details: 100 μM compound, 60 min incubation
Protocol: Intact pancreatic islets were isolated from fed NMRI mice (15-18 g) as previously described (Fuhlendorff et al., Diabetes, Vol. 47 (3) pp. 345-351, 1998). Insulin release was measured from groups of 10 size-matched islets, cultured overnight in RPMI-1640 tissue culture medium containing 1% GlutaMAX™ (Gibco BRL),1% penicillin/streptomycin, 7.5% NaHCO3 and 10% new-born calf serum. The islets were washed for 20 minutes in Krebs Ringer Buffer consisting of 115 mM NaCl, 4.7 mM KCl, 2.6 mM CaCl2, 1.2 mM KH2PO4, 1.2 mM MgSO4, 20 mM HEPES, 2 mM glutamine, 5 mM NaHCO3, 0.2% human serum albumin and 1% penicillin/streptomycin) and 2.5 mM, 5 mM or 10 mM D-glucose. Afterwashing, the islet were incubated for one hour at +37° C. in Krebs Ringer Buffer containing the test compound at 100 μM and glucose at 2.5 mM, 5 mM or 10 mM. After the one-hour incubation, the medium was aspirated and kept at −20° C. until assayed for insulin using the following ELISA technique. Immuno 96 well paltes (MaxiSorPTM, NUNC, Denmark) were coated over night at 4° C. with a rabbit-anti-guinea pig-lgG (Dako) antibody diluted 1:1000 in 0.1 M NaHCO3 (pH 9.8). After washing 4 times in 0.15 M NaCl and 0.005% Tween-20 the plates were incubated with guinea pig-anti-insulin diluted in phosphate buffered saline (incubation buffer; pH 7.4) containing 0.1% Tween-20 and 0.5% human serum albumin over night. After washing the sambles were incubated for 1.5 h with relevant samples and peroxidase-insulin (Sigma) diluted 1:10000 in PBS-DIL. The samples we-were then washed and developed with TMBPlus-substrated as described by the manufacture (KEM EN TEC, Denmark). The amount of insulin was quantified from a standard curve after reading the samples at 450 nm.
Elevating the external glucose concentration from 2.5 mM to 5 mM was not associated with an increase in insulin release whereas a 90% stimulation was observed following application of 10 mM glucose (P<0.05; n=8).

[1] = system: isolated perfused rat pancreas; assay: Insulin release from isolated perfused rat pancreas
Protocol: The effect of the compounds of the invention on the insulin release from isolated perfused rat pancreas can be investigated as exemplified below with the title compound of Example 2 (compound (Ex 2). In the example described, the investigation is carried out at 2.8 mM and 8.3 mM glucose.
Male Sprague Dawley rats (body weight around 300 g) were anaesthetised with a mixture of Hypnorm® (Janssen Pharma) and Dormicum® (Roche) and the pancreas was cannulated and isolated a described by Sturis et al., Am. J. Physiol. 269, E786-E792, 1995. The organ was placed at 37° C. in a humidified perfusion chamber and perfused with a […] gassed bicarbonated Krebs Ringer, 4% Dextran buffer from a pump delivering 71% of the total volume and from a pump delivering 29% volume of the same buffer with added BSA (0.2% final concentration) and glucose (2.8 mM or 8.3 mM final concentration). The 29% pump also delivered compund (Ex 2) at 10^−5 M in the interval t=20-40 min and at 10^−4 M in the interval t=60-80 min. The pancreata were acclimatised for 20 min before start of sampling at 1 fraction of ca 1900 μl/min for 100 min. Aliquots of 200 μl were frozen away at −20° C. for subsequent insulin ELISA using guinea pig anti-insulin antibodies. The results are shown in FIG. 7 and are expressed as fmol insulin released per pancreas per min. Each plot represents one pancreas, except 8.3 mM glucose alone mean of n=2. […] In the pancreas infused with 8.3 mM glucose and compound (Ex 2) there was an initial noise in the interval t=0-20 min which was due to a mechanical problem with the tubing. […] When 10^−4 M compound (Ex 2) was added at t=60 min there was a classic first-phase insulin release peaking at 3000 fmol/min, followed by second-phase release. […] We have evidence that non-reversal may be due to the low BSA concentration (0.2%) in the perfusate.
In the pancreas perfused with compound (Ex 2) at 2.8 mM glucose, the insulin secretion was only about 10% of that seen at 8.3 mM glucose (max. 250 fmol/min) with 10^−4 M compound (Ex 2) while the control pancreas secretion was flat at ca 20 fmol/min.

SMILES: COc1cccc(C(CC2=NCCN2)c2ccccn2)c1 (single isomer, unassigned; (-)) [compound (Ex 2), (−)-2-(2-(4,5-Dihydro-1H-imidazol-2-yl)-1-(3-methoxyphenyl)ethyl)pyridine]
- effect on insulin release (intact mouse islets; 2.5 mM glucose): does not affect insulin release
- effect on insulin release (intact mouse islets; 5 mM glucose): does not affect insulin release
- stimulation of insulin secretion (intact mouse islets; 10 mM glucose, P<0.01, n=8): 220%
- insulin secretion, max. ([1]; 2.8 mM glucose, 10^-4 M compound, control pancreas ca 20 fmol/min): 250 fmol/min
- first-phase insulin release, peak ([1]; 8.3 mM glucose, 10^-4 M compound added at t=60 min, 8.3 mM glucose alone 300 up to ca 700 fmol/min): 3000 fmol/min
- effect on insulin secretion (in words) ([1]; 8.3 mM glucose, 10^-5 M compound, t=20-40 min): small increase in insulin secretion
- insulin secretion at 2.8 mM glucose as share of that seen at 8.3 mM glucose ([1]; 10^-4 M compound): about 10%
